Test results as given in article PMC6276119 (Biochemistry, 2016).

Molecular target: AtHCT (Arabidopsis thaliana, UniProt Q9FI78)
Assay: X-ray crystal structure
Type: binding

Sequence of AtHCT (Q9FI78 whole entry): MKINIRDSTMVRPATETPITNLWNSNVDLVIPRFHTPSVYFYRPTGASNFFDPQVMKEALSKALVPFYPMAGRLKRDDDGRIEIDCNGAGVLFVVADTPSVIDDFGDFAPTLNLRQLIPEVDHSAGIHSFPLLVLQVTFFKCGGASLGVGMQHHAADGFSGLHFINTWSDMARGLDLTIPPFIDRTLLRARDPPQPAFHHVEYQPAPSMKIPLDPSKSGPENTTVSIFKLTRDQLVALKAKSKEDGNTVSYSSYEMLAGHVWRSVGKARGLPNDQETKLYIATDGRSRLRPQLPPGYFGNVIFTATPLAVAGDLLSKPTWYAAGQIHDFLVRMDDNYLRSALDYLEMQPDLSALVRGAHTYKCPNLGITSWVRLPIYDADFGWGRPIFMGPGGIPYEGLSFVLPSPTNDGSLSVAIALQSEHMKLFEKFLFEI

CC(C)(COP(=O)(O)OP(=O)(O)OC[C@H]1O[C@@H](n2cnc3c(N)ncnc32)[C@H](O)[C@@H]1OP(=O)(O)O)[C@@H](O)C(=O)NCCC(=O)NCCSC(=O)/C=C/c1ccc(O)cc1 [p-coumaroyl CoA]
X-ray crystal structure (soaked crystal) (soaked with p-coumaroyl CoA in water): apo-, p-coumaroyl CoA-bound, and p-coumaroyl shikimate-bound AtHCT

O=C(/C=C/c1ccc(O)cc1)O[C@@H]1CC(C(=O)O)=C[C@@H](O)[C@H]1O [p-coumaroylshikimate]
X-ray crystal structure (soaked crystal) (acyl acceptor site, soaked with p-coumaroylshikimate in DMSO): apo-, p-coumaroyl CoA-bound, and p-coumaroyl shikimate-bound AtHCT
